Results from patent US20260266848A1, “COMPOSITIONS AND METHODS FOR DIAGNOSING AND TREATING DYSTONIA” (Duke University, priority 2023, published 2026).

Experiments:
[1] = system: DYT-TOR1A MEF EVs; experiment: Quantitative LC-MS/MS proteomics of EVs from drug-treated DYT-TOR1A MEF cultures (ritonavir, salubrinal); type: cell-based, mouse; set-up: key to RTV Corrective Direction / RTV Corrective Direction, Grwd1 / RTV Corrective Direction, Srrm2 / RTV Corrective Direction, Rbm17 / RTV Corrective Direction, Dcaf8 / RTV Corrective Direction, Edil3 / RTV Corrective Direction, Timp3 / RTV Corrective Direction, Heatr3 / RTV Corrective Direction, Brd4 / RTV Corrective Direction, P3h4 / RTV Corrective Direction, Pacsin3 / RTV Corrective Direction, Naa50 / RTV Corrective Direction, Lpar6 / RTV Corrective Direction, Ndrg1 / RTV Corrective Direction, Kntc1 / RTV Corrective Direction, Cdk11b / RTV Corrective Direction, Sumo1 / RTV Corrective Direction, Lsm4 / RTV Corrective Direction, Hmga2 / RTV Corrective Direction, Cstf1 / RTV Corrective Direction, Tes / RTV Corrective Direction, Sbno1 / RTV Corrective Direction, Unc119b / RTV Corrective Direction, Cfdp1 / RTV Corrective Direction, Sec61b: YES = protein abundance effect opposite to DYT/WT; conditions: EV protein abundance; for RTV Corrective Direction: DYT + RTV (ritonavir) vs DYT, direction compared with DYT/WT; for DYT + RTV/DYT Cohen's d: ritonavir (RTV)-treated DYT vs DYT
[2] = system: WT MEF EVs; experiment: Quantitative LC-MS/MS proteomics of EVs from ISRIB-treated WT MEF cultures; type: cell-based, mouse; set-up: key to ISRIB and DYT Parallel Direction / ISRIB and DYT Parallel Direction, Ctdsp1 / ISRIB and DYT Parallel Direction, Pcdh19 / ISRIB and DYT Parallel Direction, Tspan7 / ISRIB and DYT Parallel Direction, Myo1e / ISRIB and DYT Parallel Direction, Plpp3 / ISRIB and DYT Parallel Direction, Sh3bp4 / ISRIB and DYT Parallel Direction, Dnajc7 / ISRIB and DYT Parallel Direction, Drg1 / ISRIB and DYT Parallel Direction, Maea: YES = protein abundance effect similar to DYT/WT; conditions: EV protein abundance; for WT + ISRIB/WT Cohen's d: ISRIB-treated WT vs WT; for ISRIB and DYT Parallel Direction: WT + ISRIB vs WT, direction compared with DYT/WT

Row | Substance | RTV Corrective Direction [1] | DYT + RTV/DYT Cohen's d [1] | WT + ISRIB/WT Cohen's d [2] | ISRIB and DYT Parallel Direction [2]
1 | Nrbp1 | YES | 6.35 | 0.18 | 
2 | Ilf2 | YES | 2.47 | −1.37 | YES
3 | Ddx39b | YES | 13.79 | −1.12 | YES
4 | lgf1r | YES | 0.63 | 0.75 | 
